Results reported in patent US10973840B2, “Methods of sensitizing tumor cells to weak base chemotherapeutic drugs” (SOCPRA SCIENCES SANTÉ ET HUMAINES S.E.C., priority 2017, dated 2021).
Like-named read-outs stand apart in the source and are kept apart here.

Legend:
HT1080 cancer cell line = test: MTT assay, doxorubicin with C2 or C2WY→AA peptide; format: cell-based; conditions: Homo sapiens
Description: The IC50 (half-maximal inhibitory concentration) values of doxorubicin for HT1080 cancer cell line treated with the C2 peptide ([…] (SEQ ID NO: 7)) or the C2WY→AA peptide ([…] (SEQ ID NO: 60)) were determined in normoxia or hypoxia.
Cells (5×10^3) were cultured in 96-well plates and preincubated under 21% O2 or 1% O2 for 4 h following the addition of doxorubicin (dose response from 10^−1 to 10^5 nM) in the presence or absence of C2 and C2WY→AA peptides (SEQ ID NOs: 7 and 60) for 72 h. Cell viability was measured using the MTT dye (Life Technologies) according to the manufacturer's instructions. Because hypoxic conditions may affect the reduction of MTT to formazan, incubation of all cell cultures with MTT were performed under normoxic conditions. Each experiment was performed in triplicate. Log-scale dose-response data were plotted on a graph and a three-parameter nonlinear regression was applied to determine IC50 values. Data are presented as the mean (nM).

[1] = system: NHE6 or NHE9 knockdown cells; test: MTT cell viability assay in NHE6 or NHE9 knockdown cells; format: cell-based, human; conditions: for IC50: Homo sapiens
Description: Lentiviruses and cell transduction pLKO.1-NHE6 and pLKO.1-NHE9 shRNA (Sigma-Aldrich) were co-transfected with ViraPower™ Lentiviral Packaging Mix (Invitrogen) into HEK293T cells according to manufacturer's instructions. Viruses were collected and concentrated by ultracentrifugation 72 h after transfection. HT-1080 and MDA-MB-231 cells were infected overnight with viruses and selected with puromycin (2 μg/ml) on the third day following transduction.
(§1) Cells (5×10^3) were cultured in 96-well plates and pre-incubated under 21% O2 or 1% O2 for 4 h following the addition of drugs for 72 h. Cell viability was measured using the 3-(4,5-dimethylthiazol-2-yl)-2,5-diphenyltetrazolium bromide (MTT) dye (Life Technologies) according to manufacturer's instructions. Because hypoxic conditions may affect the reduction of MTT to formazan, incubation of all cell cultures with MTT were performed under normoxic conditions. Each experiment was performed in triplicate and at least three independent experiments were performed. Log-scale dose-response data were plotted on a graph and a three-parameter non-linear regression was applied to determine IC50 values. For calculation of the IC50s, both normoxic and hypoxic drug-treated samples were normalized with their untreated counterpart.

HT-1080 tumor xenografts = test: Chorioallantoic membrane (CAM) xenograft assay, HT-1080; format: in vivo, chick embryo; conditions: HT-1080 on CAM
Description: (§2) Fertilized eggs from white leghorn chicken were obtained from Public Health Agency of Canada (Nepean, ON). Ethics approval was obtained from the Ethics Committee on Animal Research of the University of Sherbrooke and all experimental procedures involving embryos were conducted in accordance with the regulations of the Canadian Council on Animal Care. Eggs were incubated in an Ova-Easy egg incubator (Brinsea) at 37° C. with 60% humidity. At Day 3, eggs were cracked as described^67. At Day 9, HT-1080 and MDA-MB-231 cell suspensions (1×10^6 and 2×10^6 cells, respectively) were mixed (1:1) with growth factor reduced Matrigel (BD Biosciences) in a total volume of 20 μl. Cell grafts were placed on top of the CAM and eggs were returned to the incubator for 96 h until Day 13 (n>6 chick embryos per cell line). When mentioned, 50 μl of Dox were added topically to the formed tumors (Day 13 after tumor cell grafting). At Day 16, chick embryos were euthanatized by decapitation. Tumors were removed and tumor volumes were calculated using the formula: (Dd^2/3). For RNA quantification, tumors were immediately snap-frozen in liquid nitrogen and kept at −80° C. until RNA extraction using the Trizol reagent.
(§3) To determine whether these observations were of relevance to tumor therapy in vivo, the inventors used an ex ovo chorioallantoic membrane (CAM) xenograft model in live chicken embryos^40. MDA-MB-231 or HT-1080 cells, or cells expressing either the NHE6^527-588 competing fragment or its scrambled counterpart were inoculated onto the CAM of 9-day-old chick embryos. After allowing 3 days for cells to engraft, tumors were treated with Doxorubicin or PBS. Four days later, chick embryos were euthanized, and tumors were removed for analysis (FIG. 10A). To first ascertain that tumors implanted in CAM developed hypoxia, total mRNA was extracted from tumors generated by untransfected HT-1080 cells and gene expression of the hypoxic markers CA9, GLUT1 and MCT4 was measured by qPCR. […]

[2] = system: HT-1080 fibrosarcoma cells; test: MTT cell viability assay, HT-1080; format: cell-based, human; conditions: for Fold change: HT-1080, IC50 at 1% O2 to IC50 at 21% O2; for IC50: Homo sapiens
Description: as §1
To assess the role of pH in hypoxia-induced resistance to anthracyclines, the human breast cancer MDA-MB-231 and fibrosarcoma HT-1080 cell lines were incubated in the presence or absence of the commonly used anthracycline drugs, doxorubicin (Dox), daunorubicin (Dau) and the anthracycline analog drug, mitoxantrone (Mtx), under hypoxic (1% O2) or normoxic (21% O2) conditions for 72 hours. Cell viability was then assessed using the MTT assay. The impact of extracellular pH on Dox uptake by HT-1080 was also assessed.

[3] = system: MDA-MB-231 tumor xenografts; test: Chorioallantoic membrane (CAM) xenograft assay, MDA-MB-231; format: in vivo, chick embryo; conditions: MDA-MB-231 on CAM
Description: as §2, §3

IC50 (HT1080 cancer cell line; HT-1080, Experiment 1, peptide: Vehicle, 1% O2): 83.8 nM
IC50 (HT1080 cancer cell line; HT-1080, Experiment 1, peptide: Vehicle, 21% O2): 16 nM
IC50 (HT1080 cancer cell line; HT-1080, Experiment 1, with C2 0.25 μM, 1% O2): 39.7 nM
IC50 (HT1080 cancer cell line; HT-1080, Experiment 1, with C2 0.25 μM, 21% O2): 12.2 nM
IC50 (HT1080 cancer cell line; HT-1080, Experiment 1, with C2 5.00 μM, 1% O2): 39.1 nM
IC50 (HT1080 cancer cell line; HT-1080, Experiment 1, with C2 5.00 μM, 21% O2): 17.2 nM
IC50 (HT1080 cancer cell line; HT-1080, Experiment 1, with C2WY→AA 0.25 μM, 1% O2): 99.1 nM
IC50 (HT1080 cancer cell line; HT-1080, Experiment 1, with C2WY→AA 0.25 μM, 21% O2): 21.3 nM
IC50 (HT1080 cancer cell line; HT-1080, Experiment 1, with C2WY→AA 5.00 μM, 1% O2): 76.4 nM
IC50 (HT1080 cancer cell line; HT-1080, Experiment 1, with C2WY→AA 5.00 μM, 21% O2): 16.4 nM
IC50 (HT1080 cancer cell line; HT-1080, Experiment 2, peptide: Vehicle, 1% O2): 70 nM
IC50 (HT1080 cancer cell line; HT-1080, Experiment 2, peptide: Vehicle, 21% O2): 13.4 nM
IC50 (HT1080 cancer cell line; HT-1080, Experiment 2, with C2 0.25 μM, 1% O2): 30.6 nM
IC50 (HT1080 cancer cell line; HT-1080, Experiment 2, with C2 0.25 μM, 21% O2): 11.7 nM
IC50 (HT1080 cancer cell line; HT-1080, Experiment 2, with C2 20.0 μM, 1% O2): 15.7 nM
IC50 (HT1080 cancer cell line; HT-1080, Experiment 2, with C2 20.0 μM, 21% O2): 10 nM
IC50 (HT1080 cancer cell line; HT-1080, Experiment 2, with C2WY→AA 0.25 μM, 1% O2): 98.9 nM
IC50 (HT1080 cancer cell line; HT-1080, Experiment 2, with C2WY→AA 0.25 μM, 21% O2): 12.5 nM
IC50 (HT1080 cancer cell line; HT-1080, Experiment 2, with C2WY→AA 20.0 μM, 1% O2): 74.3 nM
IC50 (HT1080 cancer cell line; HT-1080, Experiment 2, with C2WY→AA 20.0 μM, 21% O2): 10.9 nM
IC50 ([2]; HT-1080, 72 h, HT-1080, 1% O2, 72 h, read-out: IC50 of anthracyclines): 301 nM
IC50 ([2]; HT-1080, 72 h, HT-1080, 21% O2, 72 h, read-out: IC50 of anthracyclines): 73.4 nM
IC50 ([2]; HT-1080, HT-1080, 1% O2, Baf 100 nM or Cq 10 μM where combined, read-out: IC50 of doxorubicin, cells treated with neutralizing agents): 448 nM
IC50 ([2]; HT-1080, HT-1080, 21% O2, Baf 100 nM or Cq 10 μM where combined, read-out: IC50 of doxorubicin, cells treated with neutralizing agents): 113 nM
SMILES: COc1cccc2c1C(=O)c1c(O)c3c(c(O)c1C2=O)C[C@@](O)(C(=O)CO)C[C@@H]3O[C@H]1C[C@H](N)[C@H](O)[C@H](C)O1 [Dox, doxorubicin]
IC50 ([1]; scrambled shRNA, 1% O2): 459 nM
IC50 ([1]; scrambled shRNA, 21% O2): 179 nM
IC50 ([1]; shRNA NHE6, 21% O2): 421 nM
IC50 ([1]; shRNA NHE9, 21% O2): 202 nM
increase in cell resistance to Dox ([1]; NHE6 knockdown, normoxic cells): 2.4 fold
Fold (compared to scrambled 21% O2) ([1]; scrambled shRNA, 1% O2): 2.5 fold
Fold (compared to scrambled 21% O2) ([1]; scrambled shRNA, 21% O2): 1.0 fold
Fold (compared to scrambled 21% O2) ([1]; shRNA NHE6, 21% O2): 2.4 fold
Fold (compared to scrambled 21% O2) ([1]; shRNA NHE9, 21% O2): 1.1 fold
tumor growth (HT-1080 tumor xenografts; 0.5 μM Dox): unaffected
tumor growth (HT-1080 tumor xenografts; 2 μM Dox topical): significantly reduced
Fold change [2]: 4.1 fold
Fold change ([2]; Baf 100 nM or Cq 10 μM where combined): 4.0 fold
increase in resistance toward the drug by hypoxia ([2]; HT-1080 cells (so in the source), 1% O2 vs 21% O2): 5.5 fold
tumor growth ([3]; 1 μM Dox): unaffected
tumor growth ([3]; 5 μM Dox topical): significantly reduced
